{
  "source": "PubChem BioAssay (NCI)",
  "note": "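Growth conditions: 96-well plates. Treatment: test compound, 48 hours, 5 concentrations. Analysis: linear interpolation between bracketing concentrations; unreached endpoints set to highest concentration. GI50 marks 50% less growth. TGI marks complete inhibition of growth.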",
  "data": [
    {"test_system": "SF-295 CNS", "test": "NCI tumour cell line growth inhibition, 48 h", "units": {"TGI": "µM", "GI50": "µM"}, "values": [
      {"smiles": "O=C1c2cc3c(cc2CC12Cc1ccc4c(c1C2=O)CCC4)CCCC3", "note": "(stereo not drawn)", "TGI": "> 100"},
      {"smiles": "NC(=S)N/N=C1\\c2cc(Cl)ccc2-c2c1cc(Cl)cc2[N+](=O)[O-]", "GI50": 3.57, "TGI": 73.7}
    ]},
    {"test_system": "CCRF-CEM leukemia", "test": "NCI tumour cell line growth inhibition, 48 h", "units": {"TGI": "µM", "GI50": "nM"}, "values": [
      {"smiles": "CC1(C)[C@@H](Cn2cc(I)c(=O)[nH]c2=O)CC[C@@]1(C)CO", "TGI": "> 100"},
      {"smiles": "CC#Cc1ccc(-c2ccccc2)s1", "TGI": "> 100"},
      {"smiles": "CCNC(=O)C#Cc1ccc2c(C(=Nc3ccc(CN(C)C)cc3)c3ccccc3)c(O)[nH]c2c1", "GI50": 2.04, "TGI": 5.58},
      {"smiles": "O=C1c2cc3c(cc2CC12Cc1ccc4c(c1C2=O)CCC4)CCCC3", "note": "(stereo not drawn)", "TGI": "> 100"},
      {"smiles": "N#Cc1nc(-c2cnccn2)oc1N", "TGI": "> 100"},
      {"smiles": "NC(=S)N/N=C1\\c2cc(Cl)ccc2-c2c1cc(Cl)cc2[N+](=O)[O-]", "GI50": 3430, "TGI": "> 100"}
    ]},
    {"test_system": "SF-539 CNS", "test": "NCI tumour cell line growth inhibition, 48 h", "units": {"TGI": "µM", "GI50": "µM"}, "values": [
      {"smiles": "CC#Cc1ccc(-c2ccccc2)s1", "TGI": "> 100"},
      {"smiles": "CCNC(=O)C#Cc1ccc2c(C(=Nc3ccc(CN(C)C)cc3)c3ccccc3)c(O)[nH]c2c1", "GI50": 0.121, "TGI": 1.27},
      {"smiles": "O=C1c2cc3c(cc2CC12Cc1ccc4c(c1C2=O)CCC4)CCCC3", "note": "(stereo not drawn)", "TGI": "> 100"},
      {"smiles": "NC(=S)N/N=C1\\c2cc(Cl)ccc2-c2c1cc(Cl)cc2[N+](=O)[O-]", "GI50": 6.16, "TGI": 88.2}
    ]},
    {"test_system": "SK-MEL-5 melanoma", "test": "NCI tumour cell line growth inhibition, 48 h", "units": {"TGI": "µM", "GI50": "nM"}, "values": [
      {"smiles": "CC1(C)[C@@H](Cn2cc(I)c(=O)[nH]c2=O)CC[C@@]1(C)CO", "TGI": "> 100"},
      {"smiles": "CC#Cc1ccc(-c2ccccc2)s1", "TGI": "> 100"},
      {"smiles": "CCNC(=O)C#Cc1ccc2c(C(=Nc3ccc(CN(C)C)cc3)c3ccccc3)c(O)[nH]c2c1", "GI50": 307, "TGI": 1.84},
      {"smiles": "O=C1c2cc3c(cc2CC12Cc1ccc4c(c1C2=O)CCC4)CCCC3", "note": "(stereo not drawn)", "TGI": "> 100"},
      {"smiles": "N#Cc1nc(-c2cnccn2)oc1N", "TGI": "> 100"},
      {"smiles": "NC(=S)N/N=C1\\c2cc(Cl)ccc2-c2c1cc(Cl)cc2[N+](=O)[O-]", "GI50": 2770, "TGI": 9.28}
    ]},
    {"test_system": "A498 renal", "test": "NCI tumour cell line growth inhibition, 48 h", "units": {"TGI": "µM", "GI50": "nM"}, "values": [
      {"smiles": "CC1(C)[C@@H](Cn2cc(I)c(=O)[nH]c2=O)CC[C@@]1(C)CO", "TGI": "> 100"},
      {"smiles": "CC#Cc1ccc(-c2ccccc2)s1", "TGI": "> 100"},
      {"smiles": "CCNC(=O)C#Cc1ccc2c(C(=Nc3ccc(CN(C)C)cc3)c3ccccc3)c(O)[nH]c2c1", "GI50": 27.4, "TGI": 0.179},
      {"smiles": "O=C1c2cc3c(cc2CC12Cc1ccc4c(c1C2=O)CCC4)CCCC3", "note": "(stereo not drawn)", "TGI": "> 100"},
      {"smiles": "N#Cc1nc(-c2cnccn2)oc1N", "TGI": "> 100"},
      {"smiles": "NC(=S)N/N=C1\\c2cc(Cl)ccc2-c2c1cc(Cl)cc2[N+](=O)[O-]", "GI50": 1380, "TGI": 8.57}
    ]},
    {"test_system": "786-0 renal", "test": "NCI tumour cell line growth inhibition, 48 h", "units": {"TGI": "µM", "GI50": "nM"}, "values": [
      {"smiles": "CC1(C)[C@@H](Cn2cc(I)c(=O)[nH]c2=O)CC[C@@]1(C)CO", "TGI": "> 100"},
      {"smiles": "CC#Cc1ccc(-c2ccccc2)s1", "TGI": "> 100"},
      {"smiles": "CCNC(=O)C#Cc1ccc2c(C(=Nc3ccc(CN(C)C)cc3)c3ccccc3)c(O)[nH]c2c1", "GI50": 356, "TGI": 2},
      {"smiles": "O=C1c2cc3c(cc2CC12Cc1ccc4c(c1C2=O)CCC4)CCCC3", "note": "(stereo not drawn)", "TGI": "> 100"},
      {"smiles": "N#Cc1nc(-c2cnccn2)oc1N", "TGI": "> 100"},
      {"smiles": "NC(=S)N/N=C1\\c2cc(Cl)ccc2-c2c1cc(Cl)cc2[N+](=O)[O-]", "GI50": 5410, "TGI": 91.3}
    ]},
    {"test_system": "PC-3 prostate", "test": "NCI tumour cell line growth inhibition, 48 h", "units": {"TGI": "µM", "GI50": "nM"}, "values": [
      {"smiles": "CC1(C)[C@@H](Cn2cc(I)c(=O)[nH]c2=O)CC[C@@]1(C)CO", "TGI": "> 100"},
      {"smiles": "CC#Cc1ccc(-c2ccccc2)s1", "TGI": "> 100"},
      {"smiles": "CCNC(=O)C#Cc1ccc2c(C(=Nc3ccc(CN(C)C)cc3)c3ccccc3)c(O)[nH]c2c1", "GI50": 238, "TGI": "> 4.79"},
      {"smiles": "O=C1c2cc3c(cc2CC12Cc1ccc4c(c1C2=O)CCC4)CCCC3", "note": "(stereo not drawn)", "TGI": "> 100"},
      {"smiles": "N#Cc1nc(-c2cnccn2)oc1N", "TGI": "> 100"},
      {"smiles": "NC(=S)N/N=C1\\c2cc(Cl)ccc2-c2c1cc(Cl)cc2[N+](=O)[O-]", "GI50": 3210, "TGI": "> 100"}
    ]},
    {"test_system": "OVCAR-5 ovarian", "test": "NCI tumour cell line growth inhibition, 48 h", "units": {"TGI": "µM", "GI50": "nM"}, "values": [
      {"smiles": "CC1(C)[C@@H](Cn2cc(I)c(=O)[nH]c2=O)CC[C@@]1(C)CO", "TGI": "> 100"},
      {"smiles": "CC#Cc1ccc(-c2ccccc2)s1", "TGI": "> 100"},
      {"smiles": "CCNC(=O)C#Cc1ccc2c(C(=Nc3ccc(CN(C)C)cc3)c3ccccc3)c(O)[nH]c2c1", "GI50": 26.2, "TGI": 0.732}
    ]}
  ]
}
